This is an account of results in patent US20220288001A1, “CREATINE FOR IMMUNOTHERAPY” (The Regents of the University of California, priority 2019, published 2022).

The structures appear in SMILES notation. Entries after “also recorded” stand apart in the source; their conditions may differ.

In test [1] the test system is B16-OVA melanoma. The experiment in a line: B16-OVA melanoma model in C57BL/6J WT mice, creatine supplementation. Particulars: i.p. injection or dietary supplementation, both routes. Type of test: in vivo, mouse. The method, then:
To establish solid tumors, mice were s.c. injected above the right flank with 1×10^6 B16-OVA or 3×10^5 MC38 cells. Before injection, cells in log phase of growth were harvested and suspended in phosphate-buffered saline (PBS), and 50 μl of cell suspension were injected subcutaneously above the flank. Tumor size was periodically measured with a digital Vernier caliper (Thermo Fisher Scientific). For creatine supplementation via i.p. injection, […] monohydrate (cat #C3630, Sigma-Aldrich) was dissolved in sterile PBS and i.p. injected to experimental animals daily at a dose of 10.5 mg per animal per injection. […] To study the effects of creatine supplementation on suppressing tumor growth, B6 mice were inoculated with B16-OVA tumor cells and monitored for tumor growth, with or without receiving creatine supplementation via i.p. injection or diet. […] To study the T cell-dependence of creatine supplementation induced anti-tumor effects, B6-OVA tumor growth was monitored and compared in B6 mice receiving i.p. injection of an anti-CD3 T cell depleting antibody (clone RMP1-14; 100 μg/mouse/injection, twice per week) or an isotype control antibody (clone LTF-2, 100 μg/mouse/injection, twice per week), with or without i.p. supplement of creatine.

Test [2] has as its system skeletal muscle fibers. The experiment in a line: Histological analysis of skeletal muscle (H&E, muscle-fiber diameter). Type of test: in vivo, mouse. Conditions: mice receiving creatine supplements (i.p. or food); biceps femoris. On the procedure: Skeletal muscle (biceps femoris) harvested from control (Ctrl) and experimental (Creatine ip and Creatine food) mice were fixed in 10% neutral-buffered formalin and embedded in paraffin for sectioning (5-μm thickness), followed by H&E staining using standard procedures (UCLA Translational Pathology Core Laboratory). The sections were imaged using an Olympus BX51 upright microscope equipped with a Macrofire® CCD camera (Optronics®). The muscle-fiber diameter was assessed with the use of an ImageJ software (NIH).

In the case of `CN(CC(=O)O)C(=N)N` [creatine], the tumor growth result in test [1] is on record as “effectively suppressed tumor growth to a similar extent; also recorded: tumor suppression benefits”. Moreover, in test [2], the “skeletal muscle fiber size” value is listed as “enlargement of skeletal muscle fibers”.
